Experimental data reported in the supplement of paper PMC11061612.

Assays:
[1] = system: NMC-G1 (Low Grade Glioma); assay: combination Emax (second highest fraction inhibited in the dose matrix, 72 h); higher = more inhibition; extreme values may be limits of the assay
Outline: (§1)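 After 24 hours at 37°C and 5% CO2 in 1536-well plates, cells in DMEM/F12 or RPMI plus 10% FBS received two-drug dose matrices for 72 hours. Viability came from CellTiter-Glo 2.0 luminescence and was scaled as inhibition, anchored at 0 by vehicle wells and at 1 by blank wells. Combination Emax is taken as the second-highest inhibition in the matrix, and Bliss excess as the observed combination effect less EA + EB − EA·EB, with EA and EB the single-agent effects.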

[2] = system: P30-OHK (B-Lymphoblastic Leukemia); assay: as above
Outline: as §1

[3] = system: MOLP-8 (Plasma Cell Myeloma); assay: as above
Outline: as §1

[4] = system: MOLT-13 (T-Lymphoblastic Leukemia); assay: Bliss excess, mean over the matrix (fraction); higher = more synergy
Outline: as §1

[5] = system: MS-1 (Small Cell Lung Carcinoma); assay: as above
Outline: as §1

[6] = system: NCI-H596 (Other Solid Carcinomas); assay: as above
Outline: as §1

[7] = system: NMC-G1 (Low Grade Glioma); assay: as above
Outline: as §1

[8] = system: NCI-H3118 (Head and Neck Carcinoma); assay: as above
Outline: as §1

[9] = system: NCI-H1341 (Small Cell Lung Carcinoma); assay: as above
Outline: as §1

[10] = system: SNU-C2B (Colorectal Carcinoma); assay: as above
Outline: as §1

[11] = system: NCI-H1963 (Small Cell Lung Carcinoma); assay: as above
Outline: as §1

[12] = system: LCLC-103H (Non-Small Cell Lung Carcinoma); assay: as above
Outline: as §1

UACC-257 (Melanoma) = assay: as above
Outline: as §1

[13] = system: CL-11 (Colorectal Carcinoma); assay: as above
Outline: as §1

[14] = system: SNU-407 (Colorectal Carcinoma); assay: as above
Outline: as §1

[15] = system: RCC-JW (Kidney Carcinoma); assay: as above
Outline: as §1

[16] = system: SAT (Head and Neck Carcinoma); assay: as above
Outline: as §1

KALS-1 (Glioblastoma) = assay: as above
Outline: as §1

[17] = system: TUR (Acute Myeloid Leukemia); assay: as above
Outline: as §1

[18] = system: SKG-IIIa (Cervical Carcinoma); assay: as above
Outline: as §1
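Wherever Bliss excess, mean over the matrix is given: after 72 h of two-drug dosing.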

Row | SMILES | combination Emax [1] | combination Emax [2] | combination Emax [3] | Bliss excess [4] | Bliss excess [5] | Bliss excess [6] | Bliss excess [7] | Bliss excess [8] | Bliss excess [9] | Bliss excess [10] | Bliss excess [11] | Bliss excess [12] | Bliss excess (UACC-257 (Melanoma)) | Bliss excess [13] | Bliss excess [14] | Bliss excess [15] | Bliss excess [16] | Bliss excess (KALS-1 (Glioblastoma)) | Bliss excess [17] | Bliss excess [18]
1 | CN(CCO)CC[C@H](CSc1ccccc1)Nc1ccc(S(=O)(=O)NC(=O)c2ccc(N3CCC([C@@H](O)c4ccccc4-c4ccc(Cl)cc4)CC3)cc2)cc1S(=O)(=O)C(F)(F)F [AZD4320] + C=CCn1c(=O)c2cnc(Nc3ccc(N4CCN(C)CC4)cc3)nc2n1-c1cccc(C(C)(C)O)n1 [AZD1775] (first compound max 1 µM, partner max 1 µM) | 0.785 | 1 | 0.831 | 0.064 | 0.112 | 0.0361 | 0.0422 | -0.0226 | 0.0676 | -0.0143 | 0.0565 | 0.0297 | -0.0419 | -0.0201 | -0.0677 | 0.0546 | -0.0251 | 0.0252 | 0.0015 | 0.0322
2 | CN(CCO)CC[C@H](CSc1ccccc1)Nc1ccc(S(=O)(=O)NC(=O)c2ccc(N3CCC([C@@H](O)c4ccccc4-c4ccc(Cl)cc4)CC3)cc2)cc1S(=O)(=O)C(F)(F)F [AZD4320] + CCN(CCO)CCCOc1ccc2c(Nc3cc(CC(=O)Nc4cccc(F)c4)[nH]n3)ncnc2c1 [AZD2811] (first compound max 1 µM, 7x7, partner max 1 µM) | 0.718 | 1 | 0.418 | -0.0204 | 0.0349 | -0.0631 | 0.0047 | 0.002 | 0.0422 | -0.0031 | 0.0054 | -0.0157 | -0.0022 | -0.0391 | -0.102 | -0.0023 | 0.0112 | 0.0804 | 0.0393 | -0.015
3 | CN(CCO)CC[C@H](CSc1ccccc1)Nc1ccc(S(=O)(=O)NC(=O)c2ccc(N3CCC([C@@H](O)c4ccccc4-c4ccc(Cl)cc4)CC3)cc2)cc1S(=O)(=O)C(F)(F)F [AZD4320] + CN(C)CCCOc1ccc(-c2ccc3ncc4c(c3c2)n(C2CCOCC2)c(=O)n4C)cn1 [AZD0156] (first compound max 1 µM, 7x7, partner max 1 µM) | 0.756 | 0.987 | 0.315 | 0.0257 | 0.0275 | -0.0184 | -0.0362 | -0.044 | 0.0517 | -0.0007 | 0.0708 | -0.0704 | -0.0323 | -0.0441 | -0.0555 | -0.0301 | -0.0214 | -0.0076 | -0.0023 | -0.0392
4 | CN(CCO)CC[C@H](CSc1ccccc1)Nc1ccc(S(=O)(=O)NC(=O)c2ccc(N3CCC([C@@H](O)c4ccccc4-c4ccc(Cl)cc4)CC3)cc2)cc1S(=O)(=O)C(F)(F)F [AZD4320] + C[C@@H](Nc1cc(F)cc(F)c1)c1cc(C(=O)N(C)C)cc2c(=O)cc(N3CCOCC3)oc12 [AZD8186] (first compound max 1 µM, 7x7, partner max 3 µM) | 0.814 | 0.979 | 0.414 | 0.0093 | 0.0115 | -0.0892 | 0.0254 | 0.0019 | 0.0517 | 0.0342 | 0.0841 | -0.0139 | 0.0488 | -0.0011 | -0.0167 | 0.0478 | -0.0231 | 0.0385 | 0.0019 | -0.0066
5 | CN(CCO)CC[C@H](CSc1ccccc1)Nc1ccc(S(=O)(=O)NC(=O)c2ccc(N3CCC([C@@H](O)c4ccccc4-c4ccc(Cl)cc4)CC3)cc2)cc1S(=O)(=O)C(F)(F)F [AZD4320] + Cc1cc2ncnn2cc1Nc1ncc2c(n1)n(C1CCOCC1)c(=O)n2C [AZD7648] (first compound max 1 µM, 7x7, partner max 10 µM) | 0.759 | 0.982 | 0.444 | 0.0309 | -0.0409 | -0.0422 | -0.0452 | -0.0392 | 0.0254 | -0.0126 | 0.0483 | -0.0303 | -0.0351 | -0.033 | 0.0313 | -0.0476 | -0.0621 | -0.0096 | 0.0088 | -0.0614
6 | CN(CCO)CC[C@H](CSc1ccccc1)Nc1ccc(S(=O)(=O)NC(=O)c2ccc(N3CCC([C@@H](O)c4ccccc4-c4ccc(Cl)cc4)CC3)cc2)cc1S(=O)(=O)C(F)(F)F [AZD4320] + Cn1cnc2c(F)c(Nc3ccc(Br)cc3Cl)c(C(=O)NOCCO)cc21 [Selumetinib] (first compound max 1 µM, 7x7, partner max 3 µM) | 0.55 | 0.99 | 0.468 | 0.0816 | 0.0229 | -0.0441 | -0.0624 | 0.0807 | 0.0615 | 0.0528 | 0.0204 | 0.0112 | 0.0815 | 0.0489 | -0.0231 | -0.0079 | 0.0523 | 0.0924 | 0.0029 | 0.0044
7 | Cc1c2c(nn1C)CSCc1cc(n(C)n1)CSc1cc(c3ccccc3c1)OCCCc1c(C(=O)O)n(C)c3c-2c(Cl)ccc13 [AZD5991] + C1CN(CCC1(C(=O)N[C@@H](CCO)C2=CC=C(C=C2)Cl)N)C3=NC=NC4=C3C=CN4 [Capivasertib] (first compound max 1 µM, 7x7, partner max 3 µM) | 0.214 | 0.71 | 1 | -0.0135 | 0.0265 | -0.0035 | -0.0172 | 0.0263 | 0.0609 | -0.0161 | 0.0377 | -0.0025 | 0.0061 | -0.0234 | 0.0036 | 0.0131 | -0.0072 | 0.0491 | 0.0937 | -0.0231
8 | Cc1c2c(nn1C)CSCc1cc(n(C)n1)CSc1cc(c3ccccc3c1)OCCCc1c(C(=O)O)n(C)c3c-2c(Cl)ccc13 [AZD5991] + C=CCn1c(=O)c2cnc(Nc3ccc(N4CCN(C)CC4)cc3)nc2n1-c1cccc(C(C)(C)O)n1 [AZD1775] (first compound max 1 µM, partner max 1 µM) | 0.425 | 0.875 | 1 | -0.0071 | -0.0462 | -0.0682 | -0.0012 | -0.0361 | 0.0185 | 0.0194 | 0.0006 | 0.0101 | 0.0163 | -0.0112 | -0.0183 | 0.0418 | 0.0173 | -0.0169 | 0.0189 | 0.0071
9 | Cc1c2c(nn1C)CSCc1cc(n(C)n1)CSc1cc(c3ccccc3c1)OCCCc1c(C(=O)O)n(C)c3c-2c(Cl)ccc13 [AZD5991] + CC1(C)CCC(CN2CCN(c3ccc(C(=O)NS(=O)(=O)c4ccc(NCC5CCOCC5)c([N+](=O)[O-])c4)c(Oc4cnc5[nH]ccc5c4)c3)CC2)=C(c2ccc(Cl)cc2)C1 [Venetoclax] (first compound max 1 µM, 7x7, partner max 1 µM) | 0.157 | 0.996 | 1 | 0.0266 | 0.0089 | -0.0102 | -0.03 | -0.0163 | 0.132 | -0.0289 | 0.119 | -0.0347 | -0.0485 | -0.0254 | 0.0014 | -0.0335 | 0.0101 | -0.0206 | 0.138 | -0.0115
10 | Cc1c2c(nn1C)CSCc1cc(n(C)n1)CSc1cc(c3ccccc3c1)OCCCc1c(C(=O)O)n(C)c3c-2c(Cl)ccc13 [AZD5991] + C[C@@H]1COCCN1C2=NC(=NC(=C2)C3(CC3)[S@](=N)(=O)C)C4=C5C=CNC5=NC=C4 [AZD6738] (first compound max 1 µM, 7x7, partner max 10 µM) | 0.377 | 0.996 | 1 | 0.0186 | -0.0205 | -0.0172 | 0.0188 | 0.0942 | 0.0751 | -0.0199 | 0.0858 | 0.0224 | 0.0278 | 0.0322 | 0.0148 | 0.0192 | 0.0466 | 0.0165 | 0.096 | 0.0106
11 | Cc1c2c(nn1C)CSCc1cc(n(C)n1)CSc1cc(c3ccccc3c1)OCCCc1c(C(=O)O)n(C)c3c-2c(Cl)ccc13 [AZD5991] + Cc1cc2ncnn2cc1Nc1ncc2c(n1)n(C1CCOCC1)c(=O)n2C [AZD7648] (first compound max 1 µM, 7x7, partner max 10 µM) | 0.171 | 0.649 | 1 | -0.0085 | -0.0158 | 0.0056 | -0.0606 | -0.0707 | 0.0192 | -0.012 | -0.0169 | -0.0543 | -0.0242 | -0.0533 | -0.0369 | -0.0349 | -0.0599 | -0.008 | -0.0488 | -0.0261
12 | Cc1c2c(nn1C)CSCc1cc(n(C)n1)CSc1cc(c3ccccc3c1)OCCCc1c(C(=O)O)n(C)c3c-2c(Cl)ccc13 [AZD5991] + Cn1cnc2c(F)c(Nc3ccc(Br)cc3Cl)c(C(=O)NOCCO)cc21 [Selumetinib] (first compound max 1 µM, 7x7, partner max 3 µM) | 0.31 | 0.744 | 1 | 0.0203 | -0.0362 | -0.0098 | -0.0243 | 0.0324 | 0.0693 | 0.0671 | 0.0518 | -0.0774 | 0.0215 | -0.0222 | 0.0342 | -0.0319 | 0.0193 | -0.0897 | 0.0408 | -0.0076
13 | Cc1cc2ncnn2cc1Nc1ncc2c(n1)n(C1CCOCC1)c(=O)n2C [AZD7648] + C=CCn1c(=O)c2cnc(Nc3ccc(N4CCN(C)CC4)cc3)nc2n1-c1cccc(C(C)(C)O)n1 [AZD1775] (first compound max 10 µM, partner max 1 µM) | 0.327 | 0.754 | 0.828 | 0.0144 | -0.0401 | -0.0342 | 0.0106 | -0.0219 | -0.0476 | -0.0404 | 0.0345 | 0.002 | 0.0334 | 0.0119 | 0.0134 | -0.0102 | -0.0065 | -0.0051 | 0.019 | 0.0237
